Counter-ions that a name gives are not always drawn. Like-named read-outs stand apart in the source and are kept apart here.
How the values were obtained:
[1] = tested on: HOC (human parental ovarian adenocarcinoma, A2780); assay: Cytotoxic activity, 2D, resazurin, 72 h; format: cell-based; settings: for IC50: 2D, 72 h, mean ± SEM, n=3, read-out: HOC IC50; for SI HEK293/HOC: IC50 HEK293 / IC50 HOC
Protocol: (§1) The cytotoxic potential of selenoesters was tested on several cancer cell lines—HOC (human parental ovarian adenocarcinoma, HOC, A2780, Sigma-Aldrich), HOC/ADR (sub-line resistant to Adriamycin, A2780/ADR, Sigma-Aldrich), MCF-7 (human breast adenocarcinoma, ATCC®, HTB-22TM), MCF-7/PAX (resistant sub-line established by gradual adaptation of parental cells to increased concentration of paclitaxel; kindly provided by Division of Cell and Molecular Biology, Third Faculty of Medicine, Charles University, Czech Republic) and on one non-cancerous cell line—HEK293 (human embryonic kidney cell line, Leibniz Institute, DSMZ-German Collection of Microorganisms and Cell Cultures GmbH). All mentioned cell lines were authenticated using short tandem repeat (STR) profiling. Cell lines were cultivated in DMEM medium (10% FBS, 1× antibiotic antimycotic solution), except for HEK293 cell line which was cultivated without antibiotics. In case of the resistant cell lines, the medium was supplemented with a required concentration of cytostatics to maintain resistance (HOC/ADR—100 nM Adriamycin; MCF-7/PAX—300 nM paclitaxel). All cells were cultivated in a CO2 incubator (5% CO2, 37 °C, Thermo Fisher Scientific).
(§2) For the experiment, the cells at passage number 5–20 were seeded at a 1 × 10^5 cells/mL concentration into 96-well plates to 100 µL final volume. The final concentration range of the compounds was 0.63–20 µM. After an incubation of 72 h, the plates were washed 1× with PBS and resazurin solution (0.03 mg/mL in 1× PBS) was added. After 1 h of incubation, the fluorescence signal was recorded (ex./em. 560/590 nm).
(§3) The selectivity index (SI) was determined as the ratio of IC50 value for the non-cancerous cells to IC50 for the cancer cell line. For resistant cell lines, the collateral sensitivity (CS) was calculated as the ratio of IC50 value in sensitive tumour cells to IC50 in the resistant cancer cell line. In both cases, the selectivity is considered as: (1) strongly selective when SI or CS value is above 6, (2) moderately selective when SI or CS is between 3 and 6, (3) slightly selective when SI or CS is between 1 and 3 and (4) non-selective when SI or CS is less than 1[23].

[2] = tested on: MCF-7 (human breast adenocarcinoma); assay: Cytotoxic activity, 2D, resazurin, 72 h; format: cell-based; settings: for IC50: Homo sapiens, MCF7, 2D, 72 h, mean ± SEM, n=3, read-out: MCF-7 IC50; for SI HEK293/MCF-7: IC50 HEK293 / IC50 MCF-7
Protocol: as §1, §2, §3

[3] = tested on: HOC/ADR (sub-line resistant to Adriamycin, A2780/ADR); assay: Cytotoxic activity, 2D, resazurin, 72 h; format: cell-based, human; settings: for IC10 / IC50: Homo sapiens, A2780 ADR, 72 h; for IC10: HOC/ADR, concentration that should not decrease viability under 90%, read-out: IC10 of compounds; for IC50: 2D, mean ± SEM, n=3, read-out: HOC/ADR IC50; for SI HEK293/HOC/ADR: IC50 HEK293 / IC50 HOC/ADR; for CS (collateral sensitivity index): IC50 HOC / IC50 HOC/ADR
Protocol: as §1, §2, §3

[4] = tested on: MCF-7/PAX (paclitaxel-resistant sub-line); assay: Cytotoxic activity, 2D, resazurin, 72 h; format: cell-based, human; settings: for IC50: Homo sapiens, MCF7, 2D, 72 h, mean ± SEM, n=3, read-out: MCF-7/PAX IC50; for SI HEK293/MC7-7/PAX: IC50 HEK293 / IC50 MCF-7/PAX; for CS (collateral sensitivity index): IC50 MCF-7 / IC50 MCF-7/PAX
Protocol: as §1, §2, §3

[5] = tested on: HEK293 (human embryonic kidney cell line); assay: Cytotoxic activity, non-cancerous cell line, resazurin, 72 h; format: cell-based; settings: Homo sapiens, HEK293; 72 h, mean ± SEM, n=3
Protocol: as §1, §2, §3

HOC/ADR = assay: Sensitization of MDR cell line to Adriamycin; format: cell-based, human; settings: for Fold change: IC50 of Adriamycin / IC50 of Adriamycin with IC10 dose of compound
Protocol: To determine the sensitization potential of compounds, HOC/ADR and MCF-7/PAX were used. Based on the cytotoxic potential of the compounds against several cancer and non-cancerous cell lines (Table 1), the concentrations of applied compounds were adjusted. IC10 values was considered as the concentrations, which should not decrease the cell viability under 90%. After the addition of compounds, Adriamycin (concentration range 0.1–20 µM) and paclitaxel (concentration range 0.1–10 µM) were added to HOC/ADR and MCF-7/PAX, respectively. The sensitization potential of the compounds was determined as the ratio of the IC50 of cytostatic agent (Adriamycin/paclitaxel) to the IC50 of cytostatic agent affected by the compound in concentration corresponding to the IC10 value. Fold change greater than 1 indicated synergic effect of cytostatic agent and the tested compound.
After that, the plates were washed 1× with PBS and fresh DMEM medium supplemented with tested compounds at final concentration corresponding their IC10 value was added, except for positive control wells. Subsequently, Adriamycin (concentration range 0.1–20 µM) or paclitaxel (concentration range 0.1–10 µM) was added to the appropriate cell line for 72 h. After incubation, the cells were washed 1× with PBS and the resazurin solution (0.03 mg/mL) was added to evaluate the cell viability as described above. IC50 values of cytostatics were calculated for both the control and compounds; a fold change was counted up. When this fold change is higher than 1 indicates a synergism between the tested cytostatic agent and the compound, while a fold change lower than 1 means an antagonism. Fold change=IC50value of cytostatic treated cells only/IC50value of cytostatic treated cells in addition of the compound

SMILES | IC50 ([1]; Homo sapiens, A2780, 72 h) [µM] | SI HEK293/HOC [1] | IC50 [2] [µM] | SI HEK293/MCF-7 [2] | collateral sensitivity against HOC/ADR (in words) [3] | IC10 [3] [µM] | IC50 [3] [µM] | SI HEK293/HOC/ADR [3] | CS (collateral sensitivity index) [3] | IC50 [4] [µM] | SI HEK293/MC7-7/PAX [4] | CS (collateral sensitivity index) [4] | IC50 [5] [µM] | Fold change (HOC/ADR) | selectivity versus HEK293 (in words) ([2]; sensitive MCF-7) | IC50 [1] [µM] | increase of the IC50 of Adriamycin (HOC/ADR; IC10 dose of compound) | IC50 (HOC/ADR; Homo sapiens, Adriamycin 0.1–20 µM with IC10 dose of compound, 72 h, ADR row = Adriamycin alone) [µM]
N#CC[Se]C(=O)c1cccc(F)c1 [N2] | 7.1 ± 0.2 | 1.1 ± 0.1 | 2.6 ± 0.1 | 3.0 ± 0.2 | slight collateral sensitivity | 3 | 4.7 ± 0.1 | 1.7 ± 0.1 | 1.5 ± 0.1 | 2.5 ± 0.3 | 3.1 ± 0.2 | 1.0 ± 0.1 | 7.8 ± 0.2 | (1.2 ± 0.1)× |  |  |  | 
N#CC[Se]C(=O)c1cc(C(F)(F)F)cc(C(F)(F)F)c1 [N7] | 2.9 ± 0.1 | 2.3 ± 0.3 | 2.2 ± 0.1 | 3.0 ± 0.5 |  | 3.1 | 5.7 ± 0.2 | 1.2 ± 0.1 |  | 2.7 ± 0.3 | 2.5 ± 0.4 | 0.8 ± 0.1 | 6.6 ± 0.6 | (1.1 ± 0.1)× | moderate selectivity |  |  | 
CC(=O)C[Se]C(=O)c1ccc(F)c(Cl)c1 [K6] | < 1 | 2.7 ± 0.4 | 2.1 ± 0.2 | 0.9 ± 0.2 |  | 1.3 | 2.6 ± 0.1 | 0.8 ± 0.1 | 0.3 ± 0.0 | 2.3 ± 0.3 | 0.9 ± 0.1 | 0.9 ± 0.1 | 2 ± 0.1 | (1.1 ± 0.1)× |  | 0.7 ± 0.1 |  | 
N#CC[Se]C(=O)c1ccccc1C(F)(F)F [N4] | 2.4 ± 0.1 | 2.2 ± 0.2 | 2.1 ± 0.1 | 2.5 ± 0.2 |  | 2.4 | 3.7 ± 0.2 | 1.4 ± 0.1 | 0.6 ± 0.1 | 2.4 ± 0.2 | 2.1 ± 0.2 | 0.9 ± 0.1 | 5.2 ± 0.3 | (1.3 ± 0.1)× |  |  |  | 
N#CC[Se]C(=O)c1ccc(Br)cc1 [N3] | 6.5 ± 0.3 | 1.2 ± 0.1 | 2.3 ± 0.5 | 3.5 ± 0.9 | slight collateral sensitivity | 3.1 | 5.2 ± 0.1 | 1.5 ± 0.1 | 1.3 ± 0.1 | 2.7 ± 0.2 | 3.0 ± 0.6 | 0.9 ± 0.3 | 8 ± 0.3 | (1.3 ± 0.0)× |  |  |  | 
CC(=O)C[Se]C(=O)c1cccc(C(F)(F)F)c1 [K5] | 1.1 | 1.5 ± 0.0 | 1.6 ± 0.1 | 1.0 ± 0.1 |  | 1.5 | 2.2 ± 0.3 | 0.7 ± 0.1 | 0.5 ± 0.1 | 2.8 ± 0.1 | 0.6 ± 0.0 | 0.6 ± 0.1 | 1.6 | (0.5 ± 0.1)× |  |  | almost twofold | 
CC(=O)C[Se]C(=O)c1cccs1 [K1] | < 1 | 1.2 ± 0.1 | 1.6 ± 0.1 | 0.6 ± 0.1 |  | 1.5 | 2.3 | 0.4 ± 0.0 | 0.4 ± 0.0 | 2.2 ± 0.2 | 0.4 ± 0.0 | 0.7 ± 0.1 | 1 ± 0.1 | (1.3 ± 0.1)× |  | 0.8 |  | 
COc1cccc2c1C(=O)c1c(O)c3c(c(O)c1C2=O)C[C@@](O)(C(=O)CO)C[C@@H]3O[C@H]1C[C@H](N)[C@H](O)[C@H](C)O1 [ADR, doxorubicin hydrochloride, reference compound] | 0.01 |  |  |  |  |  | 2.5 |  |  |  |  |  |  |  |  |  |  | 2.5
CC(=O)O[C@H]1C(=O)[C@@]2(C)[C@H]([C@H](OC(=O)c3ccccc3)[C@]3(O)C[C@H](OC(=O)[C@H](O)[C@@H](NC(=O)c4ccccc4)c4ccccc4)C(C)=C1C3(C)C)[C@]1(OC(C)=O)CO[C@@H]1C[C@@H]2O [PAX, paclitaxel, reference compound] |  |  | 0.03 |  |  |  |  |  |  | 1.5 |  |  |  |  |  |  |  | 
N#CC[Se]C(=O)c1cccc(C(F)(F)F)c1 [N5] | 2.3 ± 0.1 | 2.7 ± 0.2 | 2.5 ± 0.2 | 2.4 ± 0.3 |  | 2.5 | 4.5 ± 0.2 | 1.3 ± 0.1 | 0.5 ± 0.1 | 2.7 ± 0.2 | 2.3 ± 0.2 | 0.9 ± 0.2 | 6 ± 0.2 | (1.2 ± 0.2)× |  |  |  | 

From article PMC9023544, “Ketone-selenoesters as potential anticancer and multidrug resistance modulation agents in 2D and 3D ovarian and breast cancer in vitro models” (Scientific Reports, 2022)
